≈ marks a conversion by molar mass, not a printed value. Where two headings read alike, the source gives them in different places.
Experiments:
HSV-2 (Lyons) = system: HSV-2 (Lyons); set-up: species or system mice; settings: mouse, in vivo, sc
HSV-1 (Kos strain) = assay: microbe, parasite or virus in culture; type: cell-based, Herpes simplex virus type 1; settings: Human alphaherpesvirus 1, HEL
[1] = system: Vaccinia virus (Western Reserve) and recombinant viruses harboring the A314T, A684V or A314T+A684V mutations; type: cell-based
[2] = system: Herpes simplex virus-1 (KOS and TK- KOS ACVr); type: cell-based
[3] = system: Herpes simplex virus-2 (G); type: cell-based
Vaccinia virus = assay: organism not typed; type: cell-based; settings: for EC50: HEL
MOLT-3 cells = settings: human
SiHa cells (HPV-16) = assay: Human cervical carcinoma (SiHa) xenografts in athymic nude mice; type: in vivo; settings: 5 weeks intratumoral treatment
Protocol: (§1) Adult animals were injected subcutaneously with 5×10^6 SiHa cells, a human cervical carcinoma cell line which harbors integrated human papillomavirus (HPV-16). Once the tumors were established (approximately after 1 week), the mice were divided in several groups, the tumor size for each mouse was determined, and treatment with placebo (PBS) or the test compounds was started. The test solutions were administered intratumorally at a volume of 50 μl. Mice were treated once a day, 5 times a week for a period of 5 weeks. Every week, the tumor size for each animal was measured with a caliper in two perpendicular dimensions and tumor size was calculated by multiplying the two measured diameters.
as §1, with “s.c.” for “subcutaneously”, “intratumorally (i.t.)” for “intratumorally”

**Q.** Which “survival rate, HSV-2 (Lyons) model” value (HSV-2 (Lyons)) does the source give for `Nc1ncn(C[C@@H](CO)OCP(=O)(O)O)c(=O)n1` [Compound 3, (S)-1-[3-hydroxy-2-(Phosphonomethoxy)propyl]-5-azacytosine] here?
**A.** 100%

**Q.** What about the EC50 (HSV-1 (Kos strain); 2 h, read-out: EC50 HSV-1 (Kos strain), Treatment from 2 h till end of experiment) of the same compound?
**A.** 0.16 µg/mL (≈ 0.571 µM)

**Q.** What about the EC50 (HSV-1 (Kos strain); read-out: EC50 HSV-1 (Kos strain), Pretreatment (−16 hours)) of the same compound?
**A.** 0.25 µg/mL (≈ 0.892 µM)

**Q.** And the EC50 (HSV-1 (Kos strain); read-out: EC50 HSV-1 (Kos strain), Treatment 2-4 hours)?
**A.** 1 µg/mL (≈ 3.57 µM)

**Q.** What about the EC50 (HSV-1 (Kos strain); read-out: EC50 HSV-1 (Kos strain), Treatment 2-6 hours) of the same compound?
**A.** 0.37 µg/mL (≈ 1.32 µM)

**Q.** And the EC50 (HSV-1 (Kos strain); read-out: EC50 HSV-1 (Kos strain), Treatment 2-8 hours)?
**A.** 0.32 µg/mL (≈ 1.14 µM)

**Q.** What about the “EC50 Vaccinia virus (Western Reserve) wild-type” value [1] of the same compound?
**A.** 1.58 µg/mL (≈ 5.64 µM)

**Q.** What about the “EC50 recombinant vaccinia virus 314 + 684” value [1] of the same compound?
**A.** 10.8 µg/mL

**Q.** And the “EC50 recombinant vaccinia virus 684” value [1]?
**A.** 6.88 µg/mL

**Q.** And the “EC50 recombinant vaccinia virus A314T” value [1]?
**A.** 4.1 µg/mL

**Q.** What about the “activity against Herpes simplex virus-1 (KOS and TK- KOS ACVr) in E6SM cell cultures” value [2] of the same compound?
**A.** significant activity

**Q.** And the “activity against Herpes simplex virus-2 (G) in E6SM cell cultures” value [3]?
**A.** significant activity

**Q.** What about the “activity against Vaccinia virus (Lederle, Lister, W R and Copenhagen) in HEL cells” value (Vaccinia virus) of the same compound?
**A.** significant activity

**Q.** What about the EC50 (Vaccinia virus; read-out: EC50 Vaccinia Virus Lister) of the same compound?
**A.** 1.69 µg/mL (≈ 6.03 µM)

**Q.** What about the EC50 (Vaccinia virus; Orthopoxvirus vaccinia, read-out: EC50 Vaccinia Virus Copenhagen) of the same compound?
**A.** 2.26 µg/mL (≈ 8.07 µM)

**Q.** What about the EC50 (Vaccinia virus; Orthopoxvirus vaccinia, read-out: EC50 Vaccinia Virus Lederle) of the same compound?
**A.** 1.7 µg/mL (≈ 6.07 µM)

**Q.** What about the EC50 (Vaccinia virus; Orthopoxvirus vaccinia, read-out: EC50 Vaccinia Virus WR) of the same compound?
**A.** 2.45 µg/mL (≈ 8.74 µM)

**Q.** And the “Toxicity MCC (microscopy), MOLT-3 cells” value (MOLT-3 cells)?
**A.** 16 µg/mL

**Q.** And the “tumor size, SiHa xenografts” value (SiHa cells (HPV-16))?
**A.** did not increase

— patent US8153787B2 (priority 2005, dated 2012)
